This note sets out measurements from patent publication US6255335A, “Substituted 2-oxo-alkanoic acid-[2-(indol-3-yl)-ethyl] amides” (Bayer Aktiengesellschaft, priority 1998, dated 2001).

Broadly, the MIC is the lowest concentration found to suppress growth. Higher therefore signals weaker potency.

Values after ≈ are worked out from the molar mass of the structure shown.

Holding throughout (assay type): cell-based
In one experiment the test system is Staph. aureus. Kind of experiment: MIC by serial dilution on iso-sensitest agar, Staph. aureus. The conditions noted are these: Staphylococcus aureus, 37° C., about 20 hours. As to the method:
(§1) The minimum inhibitory concentrations (MIC) of the compounds according to the invention were determined by serial dilution methods on iso-sensitest agar (Oxoid). For each test substance, a number of agar plates were prepared which, each with a doubled dilution, contained decreasing concentrations of the active compound. The agar plates were inoculated using a multipoint inoculator (Denley). For inoculation, overnight cultures of the pathogens were used which had previously been diluted such that each inoculation point contained about 10^4 colony-forming particles. The inoculated agar plates were incubated at 37° C., and the bacterial growth was read off after about 20 hours. The MIC value (μg/ml) indicates the lowest active compound concentration at which no growth could be detected with the naked eye.

Another experiment has as its system Staph. interm. Kind of experiment: MIC by serial dilution on iso-sensitest agar, Staph. interm. Conditions: strain ATCC 29663; 37° C., about 20 hours. As to the method:
as §1

Another experiment deals with Staph. hyicus. As to the kind of experiment: MIC by serial dilution on iso-sensitest agar, Staph. hyicus. The conditions noted are these: Staphylococcus hyicus, 20 h, 37° C., about 20 hours. As to the method:
as §1

The mark [1] stands for this setting: strain 9621, actual clinical isolate.
Where [2] appears, read: strain 9622, actual clinical isolate.
Setting [3] is: strain 9637, actual clinical isolate.
[4] abbreviates: strain 9641, actual clinical isolate.

As to `CCC(C)C(=O)C(=O)NCCc1c[nH]c2ccccc12` (stereo not shown) [A, reference compound], the minimal inhibitory concentration (MIC) is 0.25 µg/mL (≈ 0.918 µM) against Staph. aureus (ATCC6538, strain ATCC 6538); 0.125 µg/mL (≈ 0.459 µM) against Staph. aureus (ATCC25923, strain ATCC 25923); 0.125 µg/mL (≈ 0.459 µM) in the experiment with Staph. aureus (ATCC29213, strain ATCC 29213); 8 µg/mL (≈ 29.4 µM) in the experiment with Staph. interm.; 1 µg/mL (≈ 3.67 µM) in the experiment on Staph. hyicus (setting [1]); 0.5 µg/mL (≈ 1.84 µM) in the experiment on Staph. hyicus (setting [2]). Further, the MIC with Staph. hyicus (setting [3]) and in the experiment with Staph. hyicus (setting [4]) was 0.25 µg/mL (≈ 0.918 µM) each time.

As for `CC(C)CC(=O)C(=O)NCCc1c[nH]c2ccccc12` [B, reference compound], the MIC in the experiment with Staph. aureus (ATCC6538, strain ATCC 6538) was found to be 0.125 µg/mL (≈ 0.459 µM); with Staph. aureus (ATCC25923, strain ATCC 25923) it was 0.25 µg/mL (≈ 0.918 µM); with Staph. aureus (ATCC29213, strain ATCC 29213), 0.25 µg/mL (≈ 0.918 µM); against Staph. interm. it was 2 µg/mL (≈ 7.34 µM); in the experiment on Staph. hyicus (setting [1]), 0.25 µg/mL (≈ 0.918 µM); against Staph. hyicus (setting [2]) it was 0.03 µg/mL (≈ 0.11 µM). The minimum inhibitory concentration (MIC) against Staph. hyicus (setting [3]) and against Staph. hyicus (setting [4]) was 0.25 µg/mL (≈ 0.918 µM) throughout.

`CCC(C)C(=O)C(=O)NCCc1cn(C)c2ccccc12` (stereo not shown) [Compound 1]: the MIC turned out to be 0.015 µg/mL (≈ 0.0524 µM) against Staph. aureus (ATCC6538, strain ATCC 6538); 0.015 µg/mL (≈ 0.0524 µM) against Staph. aureus (ATCC25923, strain ATCC 25923); 0.015 µg/mL (≈ 0.0524 µM) in the experiment on Staph. aureus (ATCC29213, strain ATCC 29213); 2 µg/mL (≈ 6.98 µM) against Staph. interm.; 0.06 µg/mL (≈ 0.21 µM) against Staph. hyicus (setting [1]); 0.06 µg/mL (≈ 0.21 µM) in the experiment with Staph. hyicus (setting [2]). Besides, the MIC against Staph. hyicus (setting [3]) and against Staph. hyicus (setting [4]) was 0.015 µg/mL (≈ 0.0524 µM) throughout.

Regarding `CC(C)CC(=O)C(=O)NCCc1cn(C)c2ccccc12` [Compound 2], the MIC came out at 0.03 µg/mL (≈ 0.105 µM) with Staph. aureus (ATCC6538, strain ATCC 6538); 0.03 µg/mL (≈ 0.105 µM) in the experiment with Staph. aureus (ATCC25923, strain ATCC 25923); 0.03 µg/mL (≈ 0.105 µM) in the experiment with Staph. aureus (ATCC29213, strain ATCC 29213); 2 µg/mL (≈ 6.98 µM) against Staph. interm.; 0.03 µg/mL (≈ 0.105 µM) against Staph. hyicus (setting [1]); 0.03 µg/mL (≈ 0.105 µM) in the experiment with Staph. hyicus (setting [2]). Besides, the MIC against Staph. hyicus (setting [3]) and with Staph. hyicus (setting [4]) was 0.03 µg/mL (≈ 0.105 µM) each time.

Take `CCC(C)C(=O)C(=O)NCCc1cn(C(C)C)c2ccccc12` (stereo not shown) [Compound 3]: the MIC with Staph. aureus (ATCC6538, strain ATCC 6538) worked out at 0.03 µg/mL (≈ 0.0954 µM); against Staph. aureus (ATCC25923, strain ATCC 25923) it was 0.03 µg/mL (≈ 0.0954 µM); with Staph. aureus (ATCC29213, strain ATCC 29213), 0.03 µg/mL (≈ 0.0954 µM); against Staph. interm., 4 µg/mL (≈ 12.7 µM); in the experiment on Staph. hyicus (setting [1]), 1 µg/mL (≈ 3.18 µM); in the experiment on Staph. hyicus (setting [2]), 0.5 µg/mL (≈ 1.59 µM). Also, the MIC in the experiment with Staph. hyicus (setting [3]) and in the experiment with Staph. hyicus (setting [4]) was 0.03 µg/mL (≈ 0.0954 µM) throughout.

`CC(C)CC(=O)C(=O)NCCc1cn(C(C)C)c2ccccc12` [Compound 4]: the MIC in the experiment with Staph. aureus (ATCC6538, strain ATCC 6538) amounted to 0.125 µg/mL (≈ 0.398 µM); against Staph. aureus (ATCC25923, strain ATCC 25923), 0.06 µg/mL (≈ 0.191 µM); against Staph. aureus (ATCC29213, strain ATCC 29213), 0.25 µg/mL (≈ 0.795 µM); in the experiment on Staph. interm., 2 µg/mL (≈ 6.36 µM); in the experiment with Staph. hyicus (setting [1]) it was 0.06 µg/mL (≈ 0.191 µM); in the experiment with Staph. hyicus (setting [2]), 0.25 µg/mL (≈ 0.795 µM). In addition, the MIC in the experiment with Staph. hyicus (setting [3]) and in the experiment on Staph. hyicus (setting [4]) was 0.125 µg/mL (≈ 0.398 µM) throughout.

With `CC(C)CC(=O)C(=O)NCCc1cn(-c2ccccc2)c2ccccc12` [Compound 5], the MIC was determined as 0.03 µg/mL (≈ 0.0861 µM) against Staph. aureus (ATCC6538, strain ATCC 6538); 0.06 µg/mL (≈ 0.172 µM) with Staph. aureus (ATCC25923, strain ATCC 25923); 0.06 µg/mL (≈ 0.172 µM) with Staph. aureus (ATCC29213, strain ATCC 29213); 1 µg/mL (≈ 2.87 µM) in the experiment on Staph. interm.; 0.06 µg/mL (≈ 0.172 µM) with Staph. hyicus (setting [1]); 0.015 µg/mL (≈ 0.043 µM) with Staph. hyicus (setting [2]). Besides, the MIC with Staph. hyicus (setting [3]) and against Staph. hyicus (setting [4]) was 0.06 µg/mL (≈ 0.172 µM) in each case.

Regarding `CCC(C)C(=O)C(=O)NCCc1cn(Cc2ccccc2)c2ccccc12` (stereo not shown) [Compound 6], the MIC in the experiment on Staph. aureus (ATCC6538, strain ATCC 6538) is 0.125 µg/mL (≈ 0.345 µM); in the experiment with Staph. aureus (ATCC25923, strain ATCC 25923), 0.125 µg/mL (≈ 0.345 µM); in the experiment on Staph. aureus (ATCC29213, strain ATCC 29213) it was 0.125 µg/mL (≈ 0.345 µM); in the experiment with Staph. interm., 8 µg/mL (≈ 22.1 µM); in the experiment on Staph. hyicus (setting [1]) it was 1 µg/mL (≈ 2.76 µM); with Staph. hyicus (setting [2]), 1 µg/mL (≈ 2.76 µM). The MIC against Staph. hyicus (setting [3]) and with Staph. hyicus (setting [4]) was 0.125 µg/mL (≈ 0.345 µM) in each case.
